Assay [1] concerns LPS-stimulated human peripheral blood mononuclear cells (IL1-β). The assay is classed as cell-based. The following applies: Table 12, cells stimulated with 10 ng/ml LPS; for IL1β Production: LPS alone 1313 (HH2 derivatives), 1927 (1018 derivatives), 2455 (1002 and hybrid peptides) pg/ml. How it is done:
LPS from P. aeruginosa strain H103 was highly purified free of proteins and lipids using the Darveau-Hancock method. Briefly, P. aeruginosa was grown overnight in LB broth at 37° C. Cells were collected and washed and the isolated LPS pellets were extracted with a 2:1 chloroform:methanol solution to remove contaminating lipids. Purified LPS samples were quantitated using an assay for the specific sugar 2-keto-3-deoxyoctosonic acid (KDO assay) and then resuspended in endotoxin-free water (Sigma-Aldrich).

Assay [2] relates to methicillin resistant Staphylococcus aureus (MRSA) biofilm. The following applies: approximate peptide concentration […] (around 3 μg/ml); compared to untreated samples. How it is done: Methods of assessment of anti-biofilm activity—Biofilm formation was initially analyzed using a static abiotic solid surface assay as described elsewhere (de la Fuente-Nunez et al., 2012). Dilutions (1/100) of overnight cultures were incubated in BM2 biofilm-adjusted medium [62 mM potassium phosphate buffer (pH 7), 7 mM (NH4)2SO4, 2 mM MgSO4, 10 μM FeSO4, 0.4% (wt/vol) glucose, 0.5% (wt/vol) Casamino Acids], or a nutrient medium such as Luria Broth, in polypropylene microtiter plates (Falcon, United States) in the absence (control) or presence of peptide. Peptide was added at time zero (prior to adding the diluted, overnight cultures) in varying concentrations, and the decrease in biofilm formation was recorded at 22-46 h for most bacteria. Planktonic cells were removed, biofilm cells adhering to the side of the tubes were stained with crystal violet, and absorbance at 595 nm was measured using a microtiter plate reader (Bio-Tek Instruments Inc., United States). Some peptides were screened against two Gram negative organisms, P. aeruginosa and K. pneumoniae using a Bioflux apparatus (AutoMate Scientific, Berkeley, Calif.; http://www.autom8.com/bioflux_biofilm.html), which allows for the high-throughput, real-time analysis of biofilms.

Assay [3] deals with human peripheral blood mononuclear cells (MCP-1). Put plainly: SPOT-synthesized derivative screen: production of chemokine MCP-1. The following applies: Table 12, No LPS, human PBMC, peptide at ~18-24 μM; for MCP1: background subtracted 139 (HH2 derivatives), 170 (1018 derivatives), 242 (1002 and hybrid peptides) pg/ml. The format is cell-based. How it is done:
Venous blood (20 ml) from healthy volunteers was collected in Vacutainer® collection tubes containing sodium heparin as an anticoagulant (Becton Dickinson, Mississauga, ON) in accordance with UBC ethical approval and guidelines. Blood was diluted 1:1 with complete RPMI 1640 medium and separated by centrifugation over a Ficoll-Paque® Plus (Amersham Biosciences, Piscataway, N.J., USA) density gradient. White blood cells were isolated from the buffy coat, washed twice in RPMI 1640 complete medium, and the number of peripheral blood mononuclear cells (PBMC) was determined by Trypan blue exclusion. PBMC (5×10^5) were seeded into 12-well tissue culture dishes (Falcon; Becton Dickinson) at 0.75 to 1×10^6 cells/ml at 37° C. in 5% CO2. The above conditions were chosen to mimic conditions for circulating blood monocytes entering tissues at the site of infection via extravasation.
Following incubation of the cells under various treatment regimens, the tissue culture supernatants were centrifuged at 1000×g for 5 min, then at 10,000×g for 2 min to obtain cell-free samples. Supernatants were aliquoted and then stored at −20° C. prior to assay for various chemokines by capture ELISA (eBioscience and BioSource International Inc., CA, USA respectively)

Ends that are not written are not given here.

“1002-G9: single substituted 1002 peptide (VQRWLIVWGIRK-NH2) [Peptide 1002-G9]”: in assay [1], the “Fold change in IL1β relative to no peptide LPS stimulated cells” value amounted to 0.05 and the “IL1β Production” value worked out at 127 pg/mL. For the same substance, the “% Biofilm inhibition” value in assay [2] was found to be 44%. Besides, in assay [3], the “Fold increase in MCP1 cf. untreated cells” value (“Fold increase” for short) came out at 2.8 and the “MCP1” value was 444.4 pg/mL.

For “1002-G10: single substituted 1002 peptide (VQRWLIVWRGRK-NH2) [Peptide 1002-G10]”, in assay [1], the “Fold change in IL1β relative to no peptide LPS stimulated cells” value is 0.09 and the “IL1β Production” value was 222 pg/mL. Moreover, the “% Biofilm inhibition” value in assay [2] amounted to 35%. Moreover, in assay [3], the “Fold increase” value is reported as 1.4 and the “MCP1” value was found to be 91.3 pg/mL.

“1002-G11: single substituted 1002 peptide (VQRWLIVWRIGK-NH2) [Peptide 1002-G11]”: in assay [1], the “Fold change in IL1β relative to no peptide LPS stimulated cells” value is on record as 0.05 and the “IL1β Production” value was found to be 127 pg/mL. The “% Biofilm inhibition” value in assay [2] turned out to be 60%. For the same substance, in assay [3], the “Fold increase” value is 2.9 and the “MCP1” value is 465.0 pg/mL.

As for “1002-G12: single substituted 1002 peptide (VQRWLIVWRIRG-NH2) [Peptide 1002-G12]”, in assay [1], the “Fold change in IL1β relative to no peptide LPS stimulated cells” value worked out at 0.10 and the “IL1β Production” value was found to be 240 pg/mL. In addition, the “% Biofilm inhibition” value in assay [2] was found to be 50%. In assay [3], the “Fold increase” value stood at 0.9 and the “MCP1” value is -36.2 pg/mL.

In the case of “1002-I1: single substituted 1002 peptide (IQRWLIVWRIRK-NH2) [Peptide 1002-I1]”, in assay [1], the “Fold change in IL1β relative to no peptide LPS stimulated cells” value worked out at 0.05 and the “IL1β Production” value came out at 127 pg/mL. The “% Biofilm inhibition” value in assay [2] is on record as 64%. In addition, in assay [3], the “Fold increase” value is listed as 17.7 and the “MCP1” value came out at 4059.0 pg/mL.

On to “1002-I2: single substituted 1002 peptide (VIRWLIVWRIRK-NH2) [Peptide 1002-I2]”, for which, in assay [1], the “Fold change in IL1β relative to no peptide LPS stimulated cells” value is recorded as 0.05 and the “IL1β Production” value came to 127 pg/mL. In assay [2], the “% Biofilm inhibition” value was 70%. Further, in assay [3], the “Fold increase” value is on record as 3.1 and the “MCP1” value stood at 508.6 pg/mL.

Take “1002-I3: single substituted 1002 peptide (VQIWLIVWRIRK-NH2) [Peptide 1002-I3]”: in assay [1], the “Fold change in IL1β relative to no peptide LPS stimulated cells” value is recorded as 0.05 and the “IL1β Production” value was found to be 127 pg/mL. In addition, the “% Biofilm inhibition” value in assay [2] was 62%. Besides, in assay [3], the “Fold increase” value is given as 13.2 and the “MCP1” value is 2953.7 pg/mL.

Take “1002-I4: single substituted 1002 peptide (VQRILIVWRIRK-NH2) [Peptide 1002-I4]”: in assay [1], the “Fold change in IL1β relative to no peptide LPS stimulated cells” value turned out to be 0.09 and the “IL1β Production” value is 213 pg/mL. Also, in assay [2], the “% Biofilm inhibition” value stood at 62%. In assay [3], the “Fold increase” value was determined as 2.1 and the “MCP1” value came out at 273.6 pg/mL.

In the case of “1002-I5: single substituted 1002 peptide (VQRWIIVWRIRK-NH2) [Peptide 1002-I5]”, in assay [1], the “Fold change in IL1β relative to no peptide LPS stimulated cells” value worked out at 0.08 and the “IL1β Production” value was found to be 186 pg/mL. The “% Biofilm inhibition” value in assay [2] is on record as 84%. Moreover, in assay [3], the “Fold increase” value came to 24.2 and the “MCP1” value was determined as 5633.1 pg/mL.

As to “1002-I7: single substituted 1002 peptide (VQRWLIIWRIRK-NH2) [Peptide 1002-I7]”, in assay [1], the “Fold change in IL1β relative to no peptide LPS stimulated cells” value is 0.05 and the “IL1β Production” value amounted to 127 pg/mL. In assay [2], the “% Biofilm inhibition” value stood at 73%. In assay [3], the “Fold increase” value was determined as 3.3 and the “MCP1” value was 557.5 pg/mL.

The values above are taken from patent US20190315823A1, “SMALL CATIONIC ANTI-BIOFILM AND IDR PEPTIDES” (priority 2013, published 2019).
